From paper PMC5330855 (Biochemistry, 2017)

How the values were obtained:
[1] = molecular target: T1, hhIYD (Haliscomenobacter hydrossis, UniProt F4KU78); assay: Anaerobic reduction of hhIYD by xanthine and xanthine oxidase; assay type: biochemical; settings: hhIYD 20 μM; F-Tyr 500 μM or 2IP 800 μM
T1 sequence (F4KU78 1-222): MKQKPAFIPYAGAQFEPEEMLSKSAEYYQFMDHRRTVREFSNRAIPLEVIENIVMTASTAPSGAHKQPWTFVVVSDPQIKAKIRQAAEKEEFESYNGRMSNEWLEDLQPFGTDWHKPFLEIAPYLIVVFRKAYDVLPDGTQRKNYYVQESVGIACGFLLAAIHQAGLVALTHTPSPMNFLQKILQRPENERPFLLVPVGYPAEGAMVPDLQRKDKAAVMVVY

[2] = molecular target: T2, human IYD (Homo sapiens, UniProt Q6PHW0); assay: Catalytic deiodination by human IYD; assay type: biochemical
T2 sequence (Q6PHW0 with tags, fused parts or gaps): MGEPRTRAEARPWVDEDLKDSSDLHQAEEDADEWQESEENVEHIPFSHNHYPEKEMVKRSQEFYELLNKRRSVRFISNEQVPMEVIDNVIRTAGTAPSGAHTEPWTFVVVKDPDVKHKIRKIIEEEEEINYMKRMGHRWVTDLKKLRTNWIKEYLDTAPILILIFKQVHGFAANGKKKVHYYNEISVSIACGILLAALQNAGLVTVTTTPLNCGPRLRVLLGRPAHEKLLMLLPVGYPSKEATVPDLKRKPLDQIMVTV

[3] = molecular target: T1, hhIYD; assay: Quenching of FMNox fluorescence, ligand binding to hhIYD
[4] = Intrinsic reactivity of free cofactor FMNhq with 2IP; assay type: biochemical; settings: FMN 2.5 μM, 2IP 5 mM, dithionite 0.5% w/v, 2 h incubation; threshold ~ 3 nmol
[5] = molecular target: T1, hhIYD; assay type: biochemical
[6] = test system: IYD; settings: cited from earlier work

Oc1ccccc1I [2IP, 2-iodophenol]
accumulation of the FMNsq intermediate during reduction [1]: did not detectably promote an accumulation of the FMNsq intermediate
Km greater than that for I-Tyr [2]: 560 fold
kcat less than that for I-Tyr [2]: 26 fold
increase in affinity for hhIYD relative to human IYD ([3]; hhIYD relative to human IYD): ~ 20 fold
phenol formed with free FMN [4]: no phenol was detected

N#Cc1ccc(O)c(I)c1 [2IPCN, 4-cyano-2-iodophenol]
deiodination by the bacterial deiodinase ([5]; hhIYD): not detectably deiodinated
Kd lower than that of 2IP ([3]; hhIYD): ~50 fold

O=C(O)c1ccc(O)c(I)c1 [2IPCOOH, 4-hydroxy-3-iodobenzoic acid]
Km larger than that for 2IP ([5]; hhIYD): 75%

Nc1ccc(O)c(I)c1 [4A2IP, 4-amino-2-iodophenol]
kcat/Km greater than the parent 2IP ([5]; hhIYD): ~6 fold
Kd larger than that for 2IP ([3]; hhIYD): 40%

N[C@@H](Cc1ccc(O)c(F)c1)C(=O)O [F-Tyr, 3-fluoro-L-tyrosine, reference compound]
Kd [3]: 46 ± 2 µM

N[C@@H](Cc1ccc(O)c(I)c1)C(=O)O [I-Tyr, 3-iodo-L-tyrosine, reference compound]
Km greater than Kd [2]: > 80 fold
kcat/Km larger than that measured for I2-Tyr ([2]; I2-Tyr by 125I-iodide release assay): 50%
increase in kcat/Km, hhIYD relative to human IYD ([5]; hhIYD versus human IYD): 16 fold
weaker affinity for hhIYD than human IYD ([3]; hhIYD relative to human IYD): ~ 90 fold

O-(4-hydroxy-3,5-diiodophenoxy)-3,5-diiodo-L-tyrosine [Thyroxine]
dehalogenation by IYD [6]: not dehalogenated by IYD
